Data taken from patent publication US20240327412A1, “FACTOR XIIA INHIBITORS” (KALVISTA PHARMACEUTICALS LIMITED, priority 2021, published 2024).

Assays:
Assay type in all cases: biochemical
Human Factor XIIa = biological target: T1, Human Factor XIIa (Homo sapiens, UniProt P00748); test: Determination of FXIIa inhibition (fluorogenic substrate H-DPro-Phe-Arg-AFC, IC50 assay); conditions: substrate at Km concentration, 25° C.; category scale; read-out: Human FXII IC50 (nm)
T1 construct: Proteolytic cleavage of FXII to heavy and light chains of FXIIa dramatically increases catalytic activity; purchased Enzyme Research Laboratories
T1 sequence (P00748 373-615 limits assumed): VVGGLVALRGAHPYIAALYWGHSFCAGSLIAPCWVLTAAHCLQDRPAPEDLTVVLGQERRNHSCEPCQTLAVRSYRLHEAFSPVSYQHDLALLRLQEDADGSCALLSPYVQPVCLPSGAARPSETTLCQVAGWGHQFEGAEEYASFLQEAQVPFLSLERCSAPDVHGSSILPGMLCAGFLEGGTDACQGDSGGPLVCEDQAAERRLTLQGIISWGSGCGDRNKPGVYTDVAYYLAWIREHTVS
T1 sequence (P00748 20-372 partner limits assumed): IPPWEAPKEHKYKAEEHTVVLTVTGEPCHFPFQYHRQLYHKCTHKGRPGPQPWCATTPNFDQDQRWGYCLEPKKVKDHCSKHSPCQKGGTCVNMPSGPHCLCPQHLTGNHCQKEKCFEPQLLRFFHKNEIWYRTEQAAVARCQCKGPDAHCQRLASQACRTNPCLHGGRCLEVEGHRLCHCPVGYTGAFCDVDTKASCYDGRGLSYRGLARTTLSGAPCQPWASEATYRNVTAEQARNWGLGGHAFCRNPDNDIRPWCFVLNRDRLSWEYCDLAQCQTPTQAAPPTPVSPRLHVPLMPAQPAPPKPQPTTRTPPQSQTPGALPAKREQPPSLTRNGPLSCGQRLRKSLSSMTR
Outline: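 Human FXIIa incubated at 25° C. with fluorogenic H-DPro-Phe-Arg-AFC at its Km concentration plus varying compound levels. Linear fluorescence increase over 5 min taken as % activity; IC50 is concentration halving uninhibited activity.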

Plasma Kallikrein = biological target: T2, Plasma Kallikrein (Homo sapiens, UniProt P03952); test: Related protease inhibition: Plasma Kallikrein (fluorogenic substrate at Km); conditions: class symbols per Table 18, read-out: IC50 (human PKal)
T2 construct: FXIIa converts plasma prekallikrein (PK) to plasma kallikrein (PKa)
Outline: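 Each human protease was incubated with substrate and test compound over a concentration range; fluorescence release was then recorded for 5 min at 25° C. Rates were normalized to uninhibited enzyme (100%) to derive IC50.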

KLK1 = KLK1 (Homo sapiens, UniProt P06870); test: Related protease inhibition: KLK1 (fluorogenic substrate at Km); conditions: class symbols per Table 18
Protocol: (§1) In vitro inhibition of related proteases was determined using an IC50 assay based on standard literature methods (see e.g. Shori et al., Biochem. Pharmacol., 1992, 43, 1209; Bouckaert et al., European Journal of Medicinal Chemistry 110 (2016) 181). Human serine protease enzyme Plasma Kallikrein, KLK1, FXa, Plasmin, Thrombin and Trypsin were assayed for enzymatic activity using an appropriate fluorogenic substrate at Km concentration, FXIa at fixed substrate concentration of 100 μM and various concentrations of the test compound. Protease activity was measured by monitoring the accumulation of liberated fluorescence from the substrate over 5 min at 25° C. The linear rate of fluorescence increase per minute was expressed as percentage (%) activity. IC50 values were calculated as the concentration of inhibitor giving 50% inhibition of the uninhibited enzyme activity (100%).

FXa = FXa (Homo sapiens, UniProt P00742); test: Related protease inhibition: FXa (fluorogenic substrate at Km); conditions: class symbols per Table 18
Protocol: as §1

T2 sequence (P03952 391-638 limits assumed): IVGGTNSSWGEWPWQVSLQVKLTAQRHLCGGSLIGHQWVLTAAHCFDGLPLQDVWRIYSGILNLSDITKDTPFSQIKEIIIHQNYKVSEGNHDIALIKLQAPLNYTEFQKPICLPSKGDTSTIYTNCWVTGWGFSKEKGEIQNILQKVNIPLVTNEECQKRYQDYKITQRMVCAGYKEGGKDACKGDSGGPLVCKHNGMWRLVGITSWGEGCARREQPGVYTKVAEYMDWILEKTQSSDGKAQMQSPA
T2 sequence (P03952 20-390 partner limits assumed): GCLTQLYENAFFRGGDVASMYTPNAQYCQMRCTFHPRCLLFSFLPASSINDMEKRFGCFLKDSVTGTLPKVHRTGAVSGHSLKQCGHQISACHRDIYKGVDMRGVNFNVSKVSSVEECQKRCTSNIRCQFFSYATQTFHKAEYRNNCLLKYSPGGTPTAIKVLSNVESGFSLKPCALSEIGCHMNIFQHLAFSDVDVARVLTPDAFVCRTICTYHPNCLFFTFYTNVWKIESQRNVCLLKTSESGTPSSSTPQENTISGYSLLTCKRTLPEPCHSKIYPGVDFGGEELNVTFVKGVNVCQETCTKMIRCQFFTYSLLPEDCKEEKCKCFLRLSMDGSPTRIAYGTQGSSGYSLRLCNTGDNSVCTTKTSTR
FXa, sequence (P00742 235-488 limits assumed): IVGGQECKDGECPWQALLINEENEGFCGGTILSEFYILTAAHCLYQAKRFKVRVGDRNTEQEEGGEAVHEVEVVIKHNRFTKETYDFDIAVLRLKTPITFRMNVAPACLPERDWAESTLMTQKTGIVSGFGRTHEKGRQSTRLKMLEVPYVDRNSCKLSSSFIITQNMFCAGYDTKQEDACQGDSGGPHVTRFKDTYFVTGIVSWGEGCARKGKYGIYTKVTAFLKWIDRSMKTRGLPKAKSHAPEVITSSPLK
FXa, sequence (P00742 41-179 partner limits assumed): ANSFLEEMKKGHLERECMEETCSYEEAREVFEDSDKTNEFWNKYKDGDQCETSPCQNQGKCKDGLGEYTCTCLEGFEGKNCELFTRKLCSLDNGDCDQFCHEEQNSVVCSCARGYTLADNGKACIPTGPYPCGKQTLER
KLK1, sequence (P06870 25-262): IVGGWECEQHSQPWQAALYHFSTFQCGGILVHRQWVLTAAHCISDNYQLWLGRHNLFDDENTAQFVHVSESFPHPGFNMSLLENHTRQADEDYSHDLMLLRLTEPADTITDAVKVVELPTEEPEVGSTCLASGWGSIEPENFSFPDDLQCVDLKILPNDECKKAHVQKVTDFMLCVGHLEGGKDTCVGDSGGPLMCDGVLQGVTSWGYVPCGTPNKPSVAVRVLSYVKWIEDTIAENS

IC50 (Human Factor XIIa)	IC50 (Plasma Kallikrein)	IC50 (KLK1)	IC50 (FXa)	SMILES
0.01 to 0.1 µM	> 40 µM	> 4 µM	> 4 µM	Cn1ccc(OCC23CC(CNc4cccc5c(N)nccc45)(CN2C(=O)OCc2ccccc2)C3)cc1=O [Example 13001, benzyl 4-(((1-aminoisoquinolin-5-yl)amino)methyl)-1-(((1-methyl-2-oxo-1,2-dihydropyridin-4-yl)oxy)methyl)-2-azabicyclo[2.1.1]hexane-2-carboxylate]
0.01 to 0.1 µM	> 4 µM	10 to 40 µM	> 40 µM	CC(=O)N1CC2(COc3ccn(C)c(=O)c3)CC1(CNc1cccc3c(N)nccc13)C2 [Example 12009, 4-((2-acetyl-1-(((1-aminoisoquinolin-5-yl)amino)methyl)-2-azabicyclo[2.1.1]hexan-4-yl)methoxy)-1-methylpyridin-2(1H)-one]
–	> 40 µM	> 100 µM	> 40 µM	Clc1cccc(NCC23CC(COc4ccn5ccnc5c4)(CCO2)C3)c1 [Example 10919, 3-chloro-N-((5-((imidazo[1,2-a]pyridin-7-yloxy)methyl)-2-oxabicyclo[3.1.1]heptan-1-yl)methyl)aniline]
0.01 to 0.1 µM	> 4 µM	1 to 3 µM	> 40 µM	Cn1ccc(OCC23CN(C(=O)Oc4ccccc4)C(CNc4cccc5c(N)nccc45)(C2)C3)cc1=O [Example 12008, phenyl 1-(((1-aminoisoquinolin-5-yl)amino)methyl)-4-(((1-methyl-2-oxo-1,2-dihydropyridin-4-yl)oxy)methyl)-2-azabicyclo[2.1.1]hexane-2-carboxylate]
0.1 to 0.3 µM	–	3 to 10 µM	> 40 µM	Nc1nccc2c(NCC34CCCC(COc5ccc6nccn6c5)(C3)C4)cccc12 [Example 10942, N5-((5-((imidazo[1,2-a]pyridin-6-yloxy)methyl)bicyclo[3.1.1]heptan-1-yl)methyl)isoquinoline-1,5-diamine]
0.1 to 0.3 µM	–	0.01 to 0.1 µM	–	Cn1ccc(OCC23CN(C(=O)OCc4ccccc4)C(CNc4ccc5c(N)nccc5c4)(C2)C3)cc1=O [Example 12010, benzyl 1-(((1-aminoisoquinolin-6-yl)amino)methyl)-4-(((1-methyl-2-oxo-1,2-dihydropyridin-4-yl)oxy)methyl)-2-azabicyclo[2.1.1]hexane-2-carboxylate]
0.1 to 0.3 µM	–	0.3 to 1 µM	–	Cc1c(OCC23CCOC(CNc4cccc5c(N)nccc45)(C2)C3)ccn2ccnc12 [Example 10923, N5-((5-(((8-methylimidazo[1,2-a]pyridin-7-yl)oxy)methyl)-2-oxabicyclo[3.1.1]heptan-1-yl)methyl)isoquinoline-1,5-diamine]
0.01 to 0.1 µM	–	3 to 10 µM	–	Cc1cc(OCC23CCOC(CNc4cccc5c(N)nccc45)(C2)C3)cc2nccn12 [Example 10925, N5-((5-(((5-methylimidazo[1,2-a]pyridin-7-yl)oxy)methyl)-2-oxabicyclo[3.1.1]heptan-1-yl)methyl)isoquinoline-1,5-diamine]
0.1 to 0.3 µM	3 to 10 µM	3 to 10 µM	10 to 40 µM	Cc1cn2ccnc2cc1OCC12CCOC(CNc3cccc4c(N)nccc34)(C1)C2 [Example 10920, N5-((5-(((6-methylimidazo[1,2-a]pyridin-7-yl)oxy)methyl)-2-oxabicyclo[3.1.1]heptan-1-yl)methyl)isoquinoline-1,5-diamine]
0.01 to 0.1 µM	> 4 µM	10 to 40 µM	> 40 µM	Cn1ccc(OCC23CNC(CNc4cccc5c(N)nccc45)(C2)C3)cc1=O [Example 12007, 4-((1-(((1-aminoisoquinolin-5-yl)amino)methyl)-2-azabicyclo[2.1.1]hexan-4-yl)methoxy)-1-methylpyridin-2(1H)-one]

Further lines, the molecule ahead of its results:

SMILES	IC50 (Human Factor XIIa)	IC50 (Plasma Kallikrein)	IC50 (KLK1)	IC50 (FXa)
Nc1nccc2c(NCC34CC(COc5ccn6ccnc6n5)(CO3)C4)cccc12 [Example 6614, N5-((4-((imidazo[1,2-a]pyrimidin-7-yloxy)methyl)-2-oxabicyclo[2.1.1]hexan-1-yl)methyl)isoquinoline-1,5-diamine]	0.1 to 0.3 µM	> 4 µM	3 to 10 µM	> 40 µM
Nc1nccc2c(NCC34CC(COc5ccc6nc(C(F)(F)F)cn6n5)(CO3)C4)cccc12 [Example 6615, N5-((4-(((2-(trifluoromethyl)imidazo[1,2-b]pyridazin-6-yl)oxy)methyl)-2-oxabicyclo[2.1.1]hexan-1-yl)methyl)isoquinoline-1,5-diamine]	3 to 10 µM	–	3 to 10 µM	> 40 µM
Clc1ccc(NCC23CC(COc4ccn5ccnc5c4)(CCO2)C3)cc1 [Example 10918, 4-chloro-N-((5-((imidazo[1,2-a]pyridin-7-yloxy)methyl)-2-oxabicyclo[3.1.1]heptan-1-yl)methyl)aniline]	–	> 40 µM	> 100 µM	> 40 µM
Cc1cc(OCC23COC(CNc4cccc5c(N)nccc45)(C2)C3)cn2ccnc12 [Example 6617, N5-((4-(((8-methylimidazo[1,2-a]pyridin-6-yl)oxy)methyl)-2-oxabicyclo[2.1.1]hexan-1-yl)methyl)isoquinoline-1,5-diamine]	0.01 to 0.1 µM	> 40 µM	3 to 10 µM	10 to 40 µM
Nc1nccc2c(NCC34CC(COc5cn6ccnc6cn5)(CO3)C4)cccc12 [Example 6616, N5-((4-((imidazo[1,2-a]pyrazin-6-yloxy)methyl)-2-oxabicyclo[2.1.1]hexan-1-yl)methyl)isoquinoline-1,5-diamine]	0.3 to 1 µM	–	3 to 10 µM	> 40 µM
Nc1nccc2c(NCC34CC(COc5ccn6cc(C(F)F)nc6c5)(CO3)C4)cccc12 [Example 6613, N5-((4-(((2-(difluoromethyl)imidazo[1,2-a]pyridin-7-yl)oxy)methyl)-2-oxabicyclo[2.1.1]hexan-1-yl)methyl)isoquinoline-1,5-diamine]	0.3 to 1 µM	–	3 to 10 µM	10 to 40 µM
Clc1cc2c(NCC34CC(COc5ccn6ccnc6c5)(C3)C4)ccnc2[nH]1 [Example 1010]	0.3 to 1 µM	–	> 40 µM	1 to 3 µM
Nc1nccc2c(N3CCC4(CC(COc5ccn6ccnc6c5)C4)C3)cccc12 (stereo not drawn) [Example 8807, 5-(cis*-2-((imidazo[1,2-a]pyridin-7-yloxy)methyl)-6-azaspiro[3.4]octan-6-yl)isoquinolin-1-amine]	0.3 to 1 µM	–	10 to 40 µM	–
Cc1cc2nccn2cc1OCC12COC(CNc3cccc4c(N)nccc34)(C1)C2 [Example 6622, N5-((4-(((7-methylimidazo[1,2-a]pyridin-6-yl)oxy)methyl)-2-oxabicyclo[2.1.1]hexan-1-yl)methyl)isoquinoline-1,5-diamine]	0.01 to 0.1 µM	–	1 to 3 µM	–
CN1Cc2ccc(OCC34CC(CNc5cccc6c(N)nccc56)(CO3)C4)cc2C1=O [Example 2211, 6-((4-(((1-aminoisoquinolin-5-yl)amino)methyl)-2-oxabicyclo[2.1.1]hexan-1-yl)methoxy)-2-methylisoindolin-1-one]	0.1 to 0.3 µM	> 4 µM	1 to 3 µM	> 40 µM
c1cc(NCC23CC(COc4ccn5ccnc5c4)(C2)C3)c2cc[nH]c2n1 [Example 1009, N-((3-((imidazo[1,2-a]pyridin-7-yloxy)methyl)bicyclo[1.1.1]pentan-1-yl)methyl)-1H-pyrrolo[2,3-b]pyridin-4-amine]	10 to 40 µM	> 100 µM	> 100 µM	–
